Legend:
[1] = biological target: Alpha-2B adrenergic receptor (Homo sapiens, UniProt P18089); test: GPCRScan assay: inhibition of Alpha2B; design: radioligand conc. used [nm] 1.5 – 2.0, parental cells HEKT
[2] = biological target: Sigma non-opioid intracellular receptor 1 (Homo sapiens, UniProt Q99720); test: GPCRScan assay: inhibition of Sigma 1; design: radioligand conc. used [nm] 4.0 – 5.0, parental cells HEKT
[3] = biological target: Beta-1 adrenergic receptor (Homo sapiens) (UniProt P08588); conditions: Compound concentration 10.0 uM
[4] = biological target: Fibroblast growth factor receptor 3 (Homo sapiens) (UniProt P22607); conditions: Compound concentration 1000.0 nM
[5] = tested on: ALK tyrosine kinase receptor (Homo sapiens), Q9UM73 [L1196M]; conditions: Compound concentration 1000.0 nM
[6] = biological target: Calcium/calmodulin-dependent protein kinase kinase 2 (Homo sapiens) (UniProt Q96RR4); conditions: Compound concentration 1000.0 nM
[7] = biological target: Dual specificity mitogen-activated protein kinase kinase 5 (Homo sapiens) (UniProt Q13163); conditions: Compound concentration 1000.0 nM
[8] = biological target: Transient receptor potential cation channel subfamily M member 6 (Homo sapiens) (UniProt Q9BX84); conditions: Compound concentration 1000.0 nM
[9] = biological target: Cyclin-dependent kinase 11A (Homo sapiens) (UniProt Q9UQ88); conditions: Compound concentration 1000.0 nM
[10] = biological target: Dual specificity protein kinase CLK4 (Homo sapiens) (UniProt Q9HAZ1); conditions: Compound concentration 1000.0 nM
[11] = biological target: Serine/threonine-protein kinase PLK4 (Homo sapiens) (UniProt O00444); conditions: Compound concentration 1000.0 nM
[12] = biological target: Proto-oncogene tyrosine-protein kinase ROS (Homo sapiens) (UniProt P08922); conditions: Compound concentration 1000.0 nM
[13] = biological target: Aurora kinase A (Homo sapiens) (UniProt O14965); conditions: Compound concentration 1000.0 nM
[14] = biological target: Serine/threonine-protein kinase MRCK alpha (Homo sapiens) (UniProt Q5VT25); conditions: Compound concentration 1000.0 nM
[15] = biological target: Serine/threonine-protein kinase TAO1 (Homo sapiens) (UniProt Q7L7X3); conditions: Compound concentration 1000.0 nM
[16] = biological target: Calcium/calmodulin-dependent protein kinase type II subunit alpha (Homo sapiens) (UniProt Q9UQM7); conditions: Compound concentration 1000.0 nM
[17] = tested on: Tyrosine-protein kinase ABL1 (Homo sapiens), P00519 [Q252H]; conditions: Compound concentration 1000.0 nM
[18] = biological target: Serine/threonine-protein kinase OSR1 (Homo sapiens) (UniProt O95747); conditions: Compound concentration 1000.0 nM
[19] = biological target: Cyclin-dependent kinase 18 (Homo sapiens) (UniProt Q07002); conditions: Compound concentration 1000.0 nM
[20] = biological target: Mitotic checkpoint serine/threonine-protein kinase BUB1 (Homo sapiens) (UniProt O43683); conditions: Compound concentration 1000.0 nM
[21] = biological target: Phosphatidylinositol 3-kinase C2 domain-containing subunit gamma (Homo sapiens) (UniProt O75747); conditions: Compound concentration 1000.0 nM
[22] = tested on: Tyrosine-protein kinase ABL1 (Homo sapiens), P00519 [H396P]; conditions: Compound concentration 1000.0 nM
[23] = biological target: Cyclin-dependent kinase 4 (Homo sapiens) (UniProt P11802); conditions: Compound concentration 1000.0 nM
[24] = biological target: Vascular endothelial growth factor receptor 2 (Homo sapiens) (UniProt P35968); conditions: Compound concentration 1000.0 nM
[25] = biological target: Serine/threonine-protein kinase LATS1 (Homo sapiens) (UniProt O95835); conditions: Compound concentration 1000.0 nM
[26] = biological target: Mitogen-activated protein kinase 13 (Homo sapiens) (UniProt O15264); conditions: Compound concentration 1000.0 nM
[27] = tested on: Tyrosine-protein kinase ABL1 (Homo sapiens), P00519 [F317I]; conditions: Compound concentration 1000.0 nM
[28] = biological target: Tyrosine-protein kinase HCK (Homo sapiens) (UniProt P08631); conditions: Compound concentration 1000.0 nM
[29] = biological target: Serine/threonine-protein kinase MRCK beta (Homo sapiens) (UniProt Q9Y5S2); conditions: Compound concentration 1000.0 nM
[30] = biological target: Ribosomal protein S6 kinase beta-1 (Homo sapiens) (UniProt P23443); conditions: Compound concentration 1000.0 nM
[31] = tested on: Phosphatidylinositol 4,5-bisphosphate 3-kinase catalytic subunit alpha isoform (Homo sapiens), P42336 [C420R]; conditions: Compound concentration 1000.0 nM
[32] = tested on: Proto-oncogene tyrosine-protein kinase receptor Ret (Homo sapiens), P07949 [M918T]; conditions: Compound concentration 1000.0 nM
[33] = biological target: Serine/threonine-protein kinase MAK (Homo sapiens) (UniProt P20794); conditions: Compound concentration 1000.0 nM
[34] = biological target: Serine/threonine-protein kinase 38-like (Homo sapiens) (UniProt Q9Y2H1); conditions: Compound concentration 1000.0 nM
[35] = biological target: Serine/threonine-protein kinase 10 (Homo sapiens) (UniProt O94804); conditions: Compound concentration 1000.0 nM
[36] = biological target: Serine/threonine-protein kinase PAK 3 (Homo sapiens) (UniProt O75914); conditions: Compound concentration 1000.0 nM
[37] = biological target: Tyrosine-protein kinase Lyn (Homo sapiens) (UniProt P07948); conditions: Compound concentration 1000.0 nM
[38] = biological target: SRSF protein kinase 2 (Homo sapiens) (UniProt P78362); conditions: Compound concentration 1000.0 nM
[39] = biological target: Protein-tyrosine kinase 2-beta (Homo sapiens) (UniProt Q14289); conditions: Compound concentration 1000.0 nM
[40] = biological target: SRSF protein kinase 3 (Homo sapiens) (UniProt Q9UPE1); conditions: Compound concentration 1000.0 nM
[41] = biological target: Ankyrin repeat and protein kinase domain-containing protein 1 (Homo sapiens) (UniProt Q8NFD2); conditions: Compound concentration 1000.0 nM
[42] = biological target: Homeodomain-interacting protein kinase 2 (Homo sapiens) (UniProt Q9H2X6); conditions: Compound concentration 1000.0 nM
[43] = tested on: Receptor-type tyrosine-protein kinase FLT3 (Homo sapiens), P36888 [D835Y]; conditions: Compound concentration 1000.0 nM
[44] = biological target: Casein kinase I isoform gamma-2 (Homo sapiens) (UniProt P78368); conditions: Compound concentration 1000.0 nM
[45] = biological target: Ephrin type-B receptor 4 (Homo sapiens) (UniProt P54760); conditions: Compound concentration 1000.0 nM

Sigma non-opioid intracellular receptor 1, sequence (Q99720 whole entry): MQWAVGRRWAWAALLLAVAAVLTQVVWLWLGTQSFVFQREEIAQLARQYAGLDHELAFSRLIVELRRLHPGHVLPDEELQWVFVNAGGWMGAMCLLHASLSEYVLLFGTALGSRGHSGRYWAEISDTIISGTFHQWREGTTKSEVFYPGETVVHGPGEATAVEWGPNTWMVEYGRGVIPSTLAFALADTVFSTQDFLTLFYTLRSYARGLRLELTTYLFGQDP
Proto-oncogene tyrosine-protein kinase ROS (Homo sapiens), sequence (P08922 whole entry): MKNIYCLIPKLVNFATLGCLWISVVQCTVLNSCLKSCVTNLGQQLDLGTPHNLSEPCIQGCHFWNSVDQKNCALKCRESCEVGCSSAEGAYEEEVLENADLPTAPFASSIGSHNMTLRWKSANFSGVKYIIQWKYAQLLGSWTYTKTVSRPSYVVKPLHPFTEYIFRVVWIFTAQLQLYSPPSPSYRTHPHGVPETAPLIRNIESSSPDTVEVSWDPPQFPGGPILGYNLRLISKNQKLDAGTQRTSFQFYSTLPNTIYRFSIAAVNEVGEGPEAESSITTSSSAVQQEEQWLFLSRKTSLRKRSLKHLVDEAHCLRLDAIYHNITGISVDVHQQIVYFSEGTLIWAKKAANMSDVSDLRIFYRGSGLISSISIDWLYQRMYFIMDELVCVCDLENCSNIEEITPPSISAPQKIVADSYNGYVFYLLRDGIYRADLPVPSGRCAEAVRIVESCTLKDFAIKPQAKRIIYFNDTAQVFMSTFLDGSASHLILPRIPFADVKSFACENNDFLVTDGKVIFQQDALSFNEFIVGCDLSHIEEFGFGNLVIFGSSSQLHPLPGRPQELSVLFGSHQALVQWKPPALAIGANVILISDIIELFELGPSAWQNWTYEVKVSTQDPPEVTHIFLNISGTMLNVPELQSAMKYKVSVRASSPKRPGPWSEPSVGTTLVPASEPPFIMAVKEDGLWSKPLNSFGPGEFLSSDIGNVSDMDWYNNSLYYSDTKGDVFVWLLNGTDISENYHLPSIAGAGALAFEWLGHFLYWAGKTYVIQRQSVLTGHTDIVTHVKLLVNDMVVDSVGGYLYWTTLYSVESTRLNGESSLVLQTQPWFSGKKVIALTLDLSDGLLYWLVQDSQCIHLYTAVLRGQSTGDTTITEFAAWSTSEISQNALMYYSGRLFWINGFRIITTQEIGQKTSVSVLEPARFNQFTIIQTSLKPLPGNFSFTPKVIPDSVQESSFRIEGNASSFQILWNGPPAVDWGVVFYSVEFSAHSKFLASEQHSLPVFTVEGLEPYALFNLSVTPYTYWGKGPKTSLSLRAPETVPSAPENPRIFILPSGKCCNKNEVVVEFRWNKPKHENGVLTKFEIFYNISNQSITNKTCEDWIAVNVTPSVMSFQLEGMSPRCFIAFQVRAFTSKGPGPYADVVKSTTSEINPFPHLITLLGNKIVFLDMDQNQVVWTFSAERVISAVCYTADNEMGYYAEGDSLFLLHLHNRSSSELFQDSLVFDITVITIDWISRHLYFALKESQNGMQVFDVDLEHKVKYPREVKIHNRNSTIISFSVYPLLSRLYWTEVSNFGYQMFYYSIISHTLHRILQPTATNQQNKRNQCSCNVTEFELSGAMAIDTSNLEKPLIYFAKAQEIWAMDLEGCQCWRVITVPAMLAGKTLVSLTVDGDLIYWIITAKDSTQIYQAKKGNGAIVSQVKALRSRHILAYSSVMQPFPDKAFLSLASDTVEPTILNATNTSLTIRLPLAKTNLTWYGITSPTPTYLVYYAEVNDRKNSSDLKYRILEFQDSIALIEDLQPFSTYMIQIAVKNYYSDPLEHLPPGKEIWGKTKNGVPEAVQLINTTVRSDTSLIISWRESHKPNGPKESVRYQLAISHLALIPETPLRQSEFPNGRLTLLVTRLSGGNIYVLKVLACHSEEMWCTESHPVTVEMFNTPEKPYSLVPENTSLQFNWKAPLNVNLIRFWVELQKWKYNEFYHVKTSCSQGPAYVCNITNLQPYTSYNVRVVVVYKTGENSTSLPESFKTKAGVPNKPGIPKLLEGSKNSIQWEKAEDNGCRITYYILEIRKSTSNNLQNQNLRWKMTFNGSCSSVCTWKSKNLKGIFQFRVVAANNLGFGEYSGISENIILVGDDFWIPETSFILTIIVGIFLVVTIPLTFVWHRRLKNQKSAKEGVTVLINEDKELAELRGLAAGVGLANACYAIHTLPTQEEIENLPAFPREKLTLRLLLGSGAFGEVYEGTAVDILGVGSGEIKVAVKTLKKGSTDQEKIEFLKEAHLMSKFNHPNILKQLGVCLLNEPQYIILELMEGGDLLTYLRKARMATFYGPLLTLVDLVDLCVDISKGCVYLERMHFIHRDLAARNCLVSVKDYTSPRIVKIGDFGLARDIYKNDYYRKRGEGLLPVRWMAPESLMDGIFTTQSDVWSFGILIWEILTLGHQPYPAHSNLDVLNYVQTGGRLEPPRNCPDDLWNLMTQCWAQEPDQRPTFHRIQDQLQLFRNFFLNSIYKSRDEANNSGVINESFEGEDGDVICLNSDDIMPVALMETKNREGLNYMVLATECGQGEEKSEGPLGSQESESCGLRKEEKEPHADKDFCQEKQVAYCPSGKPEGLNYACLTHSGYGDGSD
Calcium/calmodulin-dependent protein kinase type II subunit alpha (Homo sapiens), sequence (Q9UQM7 whole entry): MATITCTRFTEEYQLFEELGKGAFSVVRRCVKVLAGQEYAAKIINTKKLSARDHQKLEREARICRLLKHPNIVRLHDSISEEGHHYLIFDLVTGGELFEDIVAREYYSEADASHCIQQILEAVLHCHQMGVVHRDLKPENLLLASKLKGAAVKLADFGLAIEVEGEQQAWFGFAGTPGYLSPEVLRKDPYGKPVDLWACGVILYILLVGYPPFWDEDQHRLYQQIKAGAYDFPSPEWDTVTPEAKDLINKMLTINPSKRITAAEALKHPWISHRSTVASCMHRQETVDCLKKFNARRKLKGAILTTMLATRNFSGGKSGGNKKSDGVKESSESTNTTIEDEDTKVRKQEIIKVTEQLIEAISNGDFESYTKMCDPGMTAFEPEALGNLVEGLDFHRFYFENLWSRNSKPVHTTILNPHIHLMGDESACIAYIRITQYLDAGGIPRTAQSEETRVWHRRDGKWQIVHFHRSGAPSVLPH
SRSF protein kinase 3 (Homo sapiens), sequence (Q9UPE1 whole entry, the tested form may be a part): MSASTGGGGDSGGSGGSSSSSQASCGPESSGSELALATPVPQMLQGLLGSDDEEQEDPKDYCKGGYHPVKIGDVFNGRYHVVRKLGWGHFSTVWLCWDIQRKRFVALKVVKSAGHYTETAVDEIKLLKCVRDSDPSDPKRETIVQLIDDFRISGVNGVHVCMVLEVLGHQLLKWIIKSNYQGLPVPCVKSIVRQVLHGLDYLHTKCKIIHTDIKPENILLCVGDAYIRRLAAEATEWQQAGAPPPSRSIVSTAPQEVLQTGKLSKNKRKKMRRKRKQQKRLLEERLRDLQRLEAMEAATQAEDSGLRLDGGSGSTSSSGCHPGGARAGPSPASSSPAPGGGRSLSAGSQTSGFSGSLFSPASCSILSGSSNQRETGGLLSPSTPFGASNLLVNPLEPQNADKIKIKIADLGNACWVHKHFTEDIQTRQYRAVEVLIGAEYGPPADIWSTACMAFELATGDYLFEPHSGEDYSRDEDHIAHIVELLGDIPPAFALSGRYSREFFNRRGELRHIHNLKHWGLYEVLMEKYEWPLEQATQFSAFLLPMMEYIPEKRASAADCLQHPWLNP
Ankyrin repeat and protein kinase domain-containing protein 1 (Homo sapiens), sequence (Q8NFD2 whole entry, the tested form may be a part): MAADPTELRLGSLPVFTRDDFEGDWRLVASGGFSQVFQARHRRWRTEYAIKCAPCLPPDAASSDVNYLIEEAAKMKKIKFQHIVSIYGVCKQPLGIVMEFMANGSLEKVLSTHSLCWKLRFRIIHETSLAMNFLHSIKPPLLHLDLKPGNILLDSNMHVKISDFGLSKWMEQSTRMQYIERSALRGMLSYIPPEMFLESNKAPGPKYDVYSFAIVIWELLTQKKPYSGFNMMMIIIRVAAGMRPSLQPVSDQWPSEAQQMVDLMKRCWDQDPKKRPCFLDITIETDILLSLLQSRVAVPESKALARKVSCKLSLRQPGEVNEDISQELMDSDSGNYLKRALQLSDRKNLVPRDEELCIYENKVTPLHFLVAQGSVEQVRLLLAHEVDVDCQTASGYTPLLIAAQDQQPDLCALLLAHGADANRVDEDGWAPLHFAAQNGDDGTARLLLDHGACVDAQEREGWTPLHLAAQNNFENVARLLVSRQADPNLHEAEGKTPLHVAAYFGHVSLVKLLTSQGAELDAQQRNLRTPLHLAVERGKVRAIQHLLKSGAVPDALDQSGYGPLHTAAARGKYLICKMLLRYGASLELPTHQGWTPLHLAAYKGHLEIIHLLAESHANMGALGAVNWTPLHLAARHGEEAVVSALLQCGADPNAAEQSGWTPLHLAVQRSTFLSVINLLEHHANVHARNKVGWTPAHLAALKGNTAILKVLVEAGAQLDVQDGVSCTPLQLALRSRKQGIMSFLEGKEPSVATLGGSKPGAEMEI
Tyrosine-protein kinase Lyn (Homo sapiens), sequence (P07948 2-512 limits assumed): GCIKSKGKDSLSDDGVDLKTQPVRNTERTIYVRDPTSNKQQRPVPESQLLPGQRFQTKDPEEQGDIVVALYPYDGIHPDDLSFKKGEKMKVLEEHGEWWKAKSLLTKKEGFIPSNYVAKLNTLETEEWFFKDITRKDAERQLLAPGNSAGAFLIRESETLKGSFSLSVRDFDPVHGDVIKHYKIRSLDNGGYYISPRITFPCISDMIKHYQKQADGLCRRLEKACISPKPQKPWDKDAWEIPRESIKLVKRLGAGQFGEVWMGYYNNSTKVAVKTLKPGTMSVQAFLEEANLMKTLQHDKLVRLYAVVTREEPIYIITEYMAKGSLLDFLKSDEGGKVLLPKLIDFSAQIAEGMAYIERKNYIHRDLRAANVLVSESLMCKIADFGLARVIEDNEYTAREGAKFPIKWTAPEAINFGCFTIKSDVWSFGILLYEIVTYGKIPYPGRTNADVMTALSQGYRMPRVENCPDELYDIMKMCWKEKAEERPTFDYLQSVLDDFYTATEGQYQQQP

`CC(C)(C)OC(=O)N1CCCC1CNC1CCC(c2cc(F)ccc2F)(S(=O)(=O)c2ccc(Cl)cc2)CC1` (stereo not given) [GSI-NC] showed a Ki [1] of 879 nM, a Ki [2] of 223 nM and an inhibition [3] of 3.61%.
`O=S(=O)(NC1CCC(c2cc(F)ccc2F)(S(=O)(=O)c2ccc(Cl)cc2)CC1)C(F)(F)F` (stereo not given) [MRK-560] showed a residual activity [4] of 90%, a residual activity [5] of 94% and a residual activity [6] of 100%. For the same compound, the residual activity [7] was 52%, the residual activity [8] was 95% and the residual activity [9] was 96%. The residual activity [10] was 84%, the residual activity [11] was 100% and the residual activity [12] was 100%. It also gave a residual activity [13] of 100%, a residual activity [14] of 91% and a residual activity [15] of 100%. The residual activity [16] was 100%, the residual activity [17] was 84% and the residual activity [18] was 91%. The residual activity [19] was 100%, the residual activity [20] was 100% and the residual activity [21] was 100%. For the same compound, the residual activity [22] was 100%, the residual activity [23] was 91% and the residual activity [24] was 100%. The residual activity [25] was 100%, the residual activity [26] was 100% and the residual activity [27] was 84%. The residual activity [28] was 85%, the residual activity [29] was 100% and the residual activity [30] was 100%. For the same compound, the residual activity [31] was 36%, the residual activity [32] was 92% and the residual activity [33] was 100%. It also gave a residual activity [34] of 75%, a residual activity [35] of 100% and a residual activity [36] of 100%. For the same compound, the residual activity [37] was 91%, the residual activity [38] was 65% and the residual activity [39] was 100%. The residual activity [40] was 100%, the residual activity [41] was 92% and the residual activity [42] was 81%. The residual activity [43] was 98%, the residual activity [44] was 99% and the residual activity [45] was 100%.

From ChEMBL document CHEMBL4507288 (2021)
